# PubChem BioAssay (NCI)
#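 These data come from cells grown in 96-well plates and exposed to compound for 48 hours at five concentrations. At the TGI there is no net growth.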
# Columns and labels:
# Experiment in all cases: NCI-60 cell line screen, 48 h
# NCI-H522 lung = test system: NCI-H522 lung
# HT29 colon = test system: HT29 colon
# SK-MEL-2 melanoma = test system: SK-MEL-2 melanoma
# NCI-H460 lung = test system: NCI-H460 lung
# OVCAR-8 ovarian = test system: OVCAR-8 ovarian
# CAKI-1 renal = test system: CAKI-1 renal
# 786-0 renal = test system: 786-0 renal
# SF-268 CNS = test system: SF-268 CNS
# A549 NSCLC = test system: A549 NSCLC
# MDA-MB-435 = test system: MDA-MB-435
# PC-3 prostate = test system: PC-3 prostate
# SF-295 CNS = test system: SF-295 CNS
# BT-549 breast = test system: BT-549 breast
# SK-MEL-28 melanoma = test system: SK-MEL-28 melanoma
# OVCAR-3 ovarian = test system: OVCAR-3 ovarian
# UO-31 renal = test system: UO-31 renal
# M14 melanoma = test system: M14 melanoma
# SK-MEL-5 melanoma = test system: SK-MEL-5 melanoma
# OVCAR-5 ovarian = test system: OVCAR-5 ovarian
# UACC-62 melanoma = test system: UACC-62 melanoma
# SNB-19 CNS = test system: SNB-19 CNS
# HCC-2998 colon = test system: HCC-2998 colon
# HCT-15 colon = test system: HCT-15 colon
# RXF 393 renal = test system: RXF 393 renal
# HS 578T breast = test system: HS 578T breast
# UACC-257 melanoma = test system: UACC-257 melanoma
# U251 CNS = test system: U251 CNS
# HOP-62 NSCLC = test system: HOP-62 NSCLC
# K-562 leukemia = test system: K-562 leukemia
# IGROV1 ovarian = test system: IGROV1 ovarian
# NCI-H23 lung = test system: NCI-H23 lung
# TK-10 renal = test system: TK-10 renal
# HCT-116 colon = test system: HCT-116 colon
# MDA-N = test system: MDA-N
# DU-145 prostate = test system: DU-145 prostate
# SK-OV-3 ovarian = test system: SK-OV-3 ovarian
# EKVX NSCLC = test system: EKVX NSCLC
# SW-620 colon = test system: SW-620 colon
# SF-539 CNS = test system: SF-539 CNS
# A498 renal = test system: A498 renal
# HOP-92 NSCLC = test system: HOP-92 NSCLC
# ACHN renal = test system: ACHN renal
# MOLT-4 leukemia = test system: MOLT-4 leukemia
# MDA-MB-231 breast = test system: MDA-MB-231 breast
# MCF7 breast = test system: MCF7 breast
# T-47D breast = test system: T-47D breast
# OVCAR-4 ovarian = test system: OVCAR-4 ovarian
# NCI-H226 lung = test system: NCI-H226 lung
# COLO 205 colon = test system: COLO 205 colon
# KM12 colon = test system: KM12 colon
# SR leukemia = test system: SR leukemia
# NCI/ADR-RES ovarian = test system: NCI/ADR-RES ovarian
# RPMI-8226 leukemia = test system: RPMI-8226 leukemia
# MALME-3M melanoma = test system: MALME-3M melanoma
# HL-60(TB) leukemia = test system: HL-60(TB) leukemia
# CCRF-CEM leukemia = test system: CCRF-CEM leukemia
# SNB-75 CNS = test system: SNB-75 CNS
# SN12C renal = test system: SN12C renal
# LOX IMVI melanoma = test system: LOX IMVI melanoma
smiles,measurement,setting,value
CC(C)=NNC1=NC(C)(C)P(=O)(NNc2ncccn2)S1 (configuration not stated),TGI,NCI-H522 lung,> 100 µM
same,TGI,HT29 colon,> 100 µM
same,TGI,SK-MEL-2 melanoma,> 100 µM
same,TGI,NCI-H460 lung,> 100 µM
same,TGI,OVCAR-8 ovarian,> 100 µM
same,TGI,CAKI-1 renal,> 100 µM
same,TGI,786-0 renal,> 100 µM
same,TGI,SF-268 CNS,> 100 µM
same,TGI,A549 NSCLC,> 100 µM
same,TGI,MDA-MB-435,> 100 µM
same,TGI,PC-3 prostate,> 100 µM
same,TGI,SF-295 CNS,> 100 µM
same,TGI,BT-549 breast,> 100 µM
same,TGI,SK-MEL-28 melanoma,> 100 µM
same,TGI,OVCAR-3 ovarian,> 100 µM
same,TGI,UO-31 renal,> 100 µM
same,TGI,M14 melanoma,> 100 µM
same,TGI,SK-MEL-5 melanoma,> 100 µM
same,TGI,OVCAR-5 ovarian,> 100 µM
same,TGI,UACC-62 melanoma,> 100 µM
same,TGI,SNB-19 CNS,> 100 µM
same,TGI,HCC-2998 colon,> 100 µM
same,TGI,HCT-15 colon,> 100 µM
same,TGI,RXF 393 renal,> 100 µM
same,TGI,HS 578T breast,> 100 µM
same,TGI,UACC-257 melanoma,> 100 µM
same,TGI,U251 CNS,> 100 µM
same,TGI,HOP-62 NSCLC,> 100 µM
same,TGI,K-562 leukemia,> 100 µM
same,TGI,IGROV1 ovarian,> 100 µM
same,TGI,NCI-H23 lung,> 100 µM
same,TGI,TK-10 renal,> 100 µM
same,TGI,HCT-116 colon,> 100 µM
same,TGI,MDA-N,> 100 µM
same,TGI,DU-145 prostate,> 100 µM
same,TGI,SK-OV-3 ovarian,> 100 µM
same,TGI,EKVX NSCLC,> 100 µM
same,TGI,SW-620 colon,> 100 µM
same,TGI,SF-539 CNS,> 100 µM
same,TGI,A498 renal,> 100 µM
same,TGI,HOP-92 NSCLC,> 100 µM
same,TGI,ACHN renal,> 100 µM
same,TGI,MOLT-4 leukemia,> 100 µM
same,TGI,MDA-MB-231 breast,> 100 µM
same,TGI,MCF7 breast,> 100 µM
same,TGI,T-47D breast,> 100 µM
same,TGI,OVCAR-4 ovarian,> 100 µM
OCCOCCO/N=C1\C(c2c(O)[nH]c3ccccc23)=Nc2ccccc21,TGI,NCI-H226 lung,10.3 µM
same,TGI,NCI-H522 lung,17 µM
same,TGI,COLO 205 colon,3.38 µM
same,TGI,HT29 colon,7.11 µM
same,TGI,SK-MEL-2 melanoma,13.7 µM
same,TGI,NCI-H460 lung,15.3 µM
same,TGI,OVCAR-8 ovarian,27.9 µM
same,TGI,CAKI-1 renal,10.8 µM
same,TGI,KM12 colon,14.1 µM
same,TGI,SR leukemia,> 100 µM
same,TGI,786-0 renal,12.1 µM
same,TGI,SF-268 CNS,17.8 µM
same,TGI,NCI/ADR-RES ovarian,> 49.2 µM
same,TGI,RPMI-8226 leukemia,> 33.2 µM
same,TGI,A549 NSCLC,17.1 µM
same,TGI,MDA-MB-435,27.8 µM
same,TGI,PC-3 prostate,18.1 µM
same,TGI,MALME-3M melanoma,17.5 µM
same,TGI,SF-295 CNS,10.2 µM
same,TGI,BT-549 breast,18.3 µM
same,TGI,SK-MEL-28 melanoma,> 85.2 µM
same,TGI,OVCAR-3 ovarian,10.2 µM
same,TGI,UO-31 renal,6.48 µM
same,TGI,M14 melanoma,> 100 µM
same,TGI,SK-MEL-5 melanoma,6 µM
same,TGI,OVCAR-5 ovarian,20.5 µM
same,TGI,UACC-62 melanoma,6.99 µM
same,TGI,SNB-19 CNS,33.7 µM
same,TGI,HCC-2998 colon,11.6 µM
same,TGI,HL-60(TB) leukemia,39.3 µM
same,TGI,HCT-15 colon,> 52.4 µM
same,TGI,RXF 393 renal,6.42 µM
same,TGI,UACC-257 melanoma,> 73.1 µM
same,TGI,U251 CNS,16.8 µM
same,TGI,CCRF-CEM leukemia,> 100 µM
same,TGI,HOP-62 NSCLC,27.6 µM
same,TGI,K-562 leukemia,> 100 µM
same,TGI,IGROV1 ovarian,5.35 µM
same,TGI,NCI-H23 lung,29.3 µM
same,TGI,TK-10 renal,20.9 µM
same,TGI,SNB-75 CNS,13.8 µM
same,TGI,HCT-116 colon,3.95 µM
same,TGI,MDA-N,26.7 µM
same,TGI,DU-145 prostate,22.8 µM
same,TGI,SK-OV-3 ovarian,3.27 µM
same,TGI,EKVX NSCLC,18.2 µM
same,TGI,SW-620 colon,> 100 µM
same,TGI,SF-539 CNS,11.5 µM
same,TGI,A498 renal,0.839 µM
same,TGI,HOP-92 NSCLC,69.6 µM
same,TGI,ACHN renal,10.3 µM
same,TGI,MOLT-4 leukemia,> 100 µM
same,TGI,MDA-MB-231 breast,29.9 µM
same,TGI,SN12C renal,17.9 µM
same,TGI,MCF7 breast,9.73 µM
same,TGI,T-47D breast,> 44.6 µM
same,TGI,OVCAR-4 ovarian,43.1 µM
same,TGI,LOX IMVI melanoma,11.6 µM
COc1ccc(NC(C)=O)cc1N1C(=O)/C(=C\c2cccc(Oc3ccccc3)c2)S(=O)(=O)C1c1ccccc1 (configuration not stated),TGI,NCI-H226 lung,> 100 µM
same,TGI,NCI-H522 lung,> 100 µM
same,TGI,COLO 205 colon,> 100 µM
same,TGI,HT29 colon,43.7 µM
same,TGI,SK-MEL-2 melanoma,> 100 µM
same,TGI,NCI-H460 lung,> 100 µM
same,TGI,OVCAR-8 ovarian,> 100 µM
same,TGI,CAKI-1 renal,44.8 µM
same,TGI,KM12 colon,> 100 µM
same,TGI,SR leukemia,23.9 µM
same,TGI,786-0 renal,> 100 µM
same,TGI,NCI/ADR-RES ovarian,> 100 µM
same,TGI,RPMI-8226 leukemia,73.6 µM
same,TGI,A549 NSCLC,> 100 µM
same,TGI,MDA-MB-435,> 100 µM
same,TGI,PC-3 prostate,> 100 µM
same,TGI,MALME-3M melanoma,> 100 µM
same,TGI,SF-295 CNS,> 100 µM
same,TGI,BT-549 breast,> 100 µM
same,TGI,SK-MEL-28 melanoma,> 100 µM
same,TGI,OVCAR-3 ovarian,> 100 µM
same,TGI,UO-31 renal,> 100 µM
same,TGI,M14 melanoma,> 100 µM
same,TGI,SK-MEL-5 melanoma,> 100 µM
same,TGI,OVCAR-5 ovarian,> 100 µM
same,TGI,UACC-62 melanoma,> 100 µM
same,TGI,SNB-19 CNS,> 100 µM
same,TGI,HCC-2998 colon,> 100 µM
same,TGI,HL-60(TB) leukemia,40.5 µM
same,TGI,HCT-15 colon,> 100 µM
same,TGI,RXF 393 renal,> 100 µM
same,TGI,UACC-257 melanoma,> 100 µM
same,TGI,U251 CNS,> 100 µM
same,TGI,CCRF-CEM leukemia,83.8 µM
same,TGI,HOP-62 NSCLC,> 100 µM
same,TGI,K-562 leukemia,68.9 µM
same,TGI,IGROV1 ovarian,> 100 µM
same,TGI,NCI-H23 lung,> 100 µM
same,TGI,TK-10 renal,> 100 µM
same,TGI,SNB-75 CNS,> 100 µM
same,TGI,HCT-116 colon,31.3 µM
same,TGI,MDA-N,53.6 µM
same,TGI,DU-145 prostate,> 100 µM
same,TGI,SK-OV-3 ovarian,> 100 µM
same,TGI,EKVX NSCLC,> 100 µM
same,TGI,SW-620 colon,> 100 µM
same,TGI,SF-539 CNS,74.6 µM
same,TGI,A498 renal,> 100 µM
same,TGI,HOP-92 NSCLC,> 100 µM
same,TGI,ACHN renal,> 100 µM
same,TGI,MOLT-4 leukemia,59 µM
same,TGI,MDA-MB-231 breast,> 100 µM
same,TGI,SN12C renal,73 µM
same,TGI,MCF7 breast,> 100 µM
same,TGI,T-47D breast,> 100 µM
same,TGI,OVCAR-4 ovarian,> 100 µM
same,TGI,LOX IMVI melanoma,> 100 µM
